Columns and labels:
Conditions in all cases: incubation time: 72 h
[1] = system: BT-474; assay: normalised response (% of control), CellTox Green; higher = less cell death (100 = DMSO, 0 = benzethonium chloride kill control)
Procedure, shortened: (§1)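 In 384-well plates holding compound at 5 concentrations in 10-fold steps over a 10,000-fold range specific to each compound, breast cancer cell lines were seeded as 20 µl suspension and incubated 72 h. CellTox Green fluorescence was measured at 485/520 nm, after which CellTiter-Glo luminescence was measured following 10 min at room temperature. Plate signals were normalised to 0.1 % DMSO (100) and a positive kill control (0), and each value is the normalised signal at a single concentration.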

[2] = system: BT-549; assay: as above
Procedure, shortened: as §1

[3] = system: CAL-120; assay: as above
Procedure, shortened: as §1

[4] = system: CAL-148; assay: as above
Procedure, shortened: as §1

[5] = system: CAL-51; assay: as above
Procedure, shortened: as §1

[6] = system: CAL-85-1; assay: as above
Procedure, shortened: as §1

[7] = system: DU-4475; assay: as above
Procedure, shortened: as §1

[8] = system: HCC1143; assay: as above
Procedure, shortened: as §1

[9] = system: HCC1599; assay: as above
Procedure, shortened: as §1

[10] = system: HCC1937; assay: as above
Procedure, shortened: as §1

[11] = system: HDQ-P1; assay: as above
Procedure, shortened: as §1

[12] = system: Hs578T; assay: as above
Procedure, shortened: as §1

[13] = system: MCF-10A; assay: as above
Procedure, shortened: as §1

[14] = system: MDA-MB-231; assay: as above
Procedure, shortened: as §1

[15] = system: MDA-MB-436; assay: as above
Procedure, shortened: as §1

[16] = system: MDA-MB-453; assay: as above
Procedure, shortened: as §1

[17] = system: MDA-MB-468; assay: as above
Procedure, shortened: as §1

[18] = system: MFM-223; assay: as above
Procedure, shortened: as §1

[19] = system: BT-474; assay: normalised response (% of control), CellTiter-Glo; higher = more viable cells (100 = DMSO, 0 = benzethonium chloride kill control)
Procedure, shortened: as §1

[20] = system: BT-549; assay: as above
Procedure, shortened: as §1

[21] = system: CAL-120; assay: as above
Procedure, shortened: as §1

[22] = system: CAL-148; assay: as above
Procedure, shortened: as §1

[23] = system: CAL-51; assay: as above
Procedure, shortened: as §1

[24] = system: CAL-85-1; assay: as above
Procedure, shortened: as §1

[25] = system: DU-4475; assay: as above
Procedure, shortened: as §1

[26] = system: HCC1143; assay: as above
Procedure, shortened: as §1

[27] = system: HCC1599; assay: as above
Procedure, shortened: as §1

[28] = system: HCC1937; assay: as above
Procedure, shortened: as §1

[29] = system: HDQ-P1; assay: as above
Procedure, shortened: as §1

[30] = system: Hs578T; assay: as above
Procedure, shortened: as §1

[31] = system: MCF-10A; assay: as above
Procedure, shortened: as §1

[32] = system: MDA-MB-231; assay: as above
Procedure, shortened: as §1

[33] = system: MDA-MB-436; assay: as above
Procedure, shortened: as §1

[34] = system: MDA-MB-453; assay: as above
Procedure, shortened: as §1

[35] = system: MDA-MB-468; assay: as above
Procedure, shortened: as §1

[36] = system: MFM-223; assay: as above
Procedure, shortened: as §1

[37] = system: SK-BR-3; assay: as above
Procedure, shortened: as §1

Row | SMILES | normalised response [1] [%] | normalised response [2] [%] | normalised response [3] [%] | normalised response [4] [%] | normalised response [5] [%] | normalised response [6] [%] | normalised response [7] [%] | normalised response [8] [%] | normalised response [9] [%] | normalised response [10] [%] | normalised response [11] [%] | normalised response [12] [%] | normalised response [13] [%] | normalised response [14] [%] | normalised response [15] [%] | normalised response [16] [%] | normalised response [17] [%] | normalised response [18] [%] | normalised response [19] [%] | normalised response [20] [%] | normalised response [21] [%] | normalised response [22] [%] | normalised response [23] [%] | normalised response [24] [%] | normalised response [25] [%] | normalised response [26] [%] | normalised response [27] [%] | normalised response [28] [%] | normalised response [29] [%] | normalised response [30] [%] | normalised response [31] [%] | normalised response [32] [%] | normalised response [33] [%] | normalised response [34] [%] | normalised response [35] [%] | normalised response [36] [%] | normalised response [37] [%]
1 | CCCCC(=O)OCC(=O)[C@]1(O)Cc2c(O)c3c(c(O)c2[C@@H](O[C@H]2C[C@H](NC(=O)C(F)(F)F)[C@H](O)[C@H](C)O2)C1)C(=O)c1c(OC)cccc1C3=O [Valrubicin] (500 nM) | 106 | 78.4 | 118 | 56.9 | 67.6 | 144 | 117 | 150 | 134 | 167 | 131 | 127 | 113 | 157 | 131 | 131 | 276 | 108 | 83.8 | 64.1 | 86.9 | 30.4 | 50.3 | 80.3 | 52.3 | 75.5 | 102 | 77.5 | 81.7 | 88.6 | 75.6 | 85.4 | 57.5 | 120 | 47.1 | 108 | 41
2 | O=C(Cc1ccc(-c2ccc(OCCN3CCOCC3)cc2)cn1)NCc1ccccc1 [KX2-391] (1000 nM) | 80.8 | 76.7 | 90.4 | 74.2 | 30.9 | 68.1 | 101 | 113 | 71.9 | 115 | 99.8 | 38.4 | 38.9 | -59.4 | 83.1 | 49.9 | 23.4 | 44.2 | 52.5 | 43.6 | 59.4 | 41.4 | 19.3 | 45.3 | 45.6 | 61.5 | 14.8 | 72.8 | 70.8 | 19.7 | 75.2 | 46.6 | 25.2 | 72 | 33.4 | 44.9 | 14.9
3 | CC1=C(/C=C/C(C)=C/C=C/C(C)=C/C(=O)O)C(C)(C)CCC1 [Tretinoin] (1000 nM) | 99.4 | 101 | 107 | 98.5 | 99 | 99.5 | 105 | 115 | 101 | 93.8 | 91.2 | 59.5 | 80.4 | 96.5 | 96.4 | 114 | 109 | 97.5 | 97 | 101 | 101 | 78.1 | 111 | 92.2 | 102 | 96.8 | 99.3 | 97.7 | 102 | 90.7 | 82 | 96.8 | 95.6 | 97.6 | 84.6 | 93.5 | 70.7
4 | COc1cc2nccc(Oc3ccc(NC(=O)Nc4cc(C)on4)c(Cl)c3)c2cc1OC [Tivozanib] (1000 nM) | 101 | 129 | 96.6 | 104 | 87.7 | 95.5 | 96.5 | 89.3 | 104 | 134 | 92.8 | 93 | 105 | 110 | 70.6 |  | 138 | 102 | 81.3 | 111 | 93.1 | 103 | 90.8 | 103 | 101 | 95.9 | 92.9 | 95.2 | 98.6 | 104 | 99.2 | 89 | 101 | 87.7 | 89.5 | 60.3 | 88.5
5 | Cc1cnc(NC(=O)Nc2cc(Br)c(C)cc2OC[C@@H]2CNCCO2)cn1 [Rabusertib] (100 nM) | 102 | 123 | 99.9 | 108 | 85.5 | 102 | 106 | 97.3 | 103 | 128 | 80.4 | 55.6 | 105 | 118 | 110 | 106 | 128 |  | 103 | 104 | 98.1 | 107 | 72.5 | 99 | 99.1 | 106 | 108 | 92.4 | 105 | 98.7 | 112 | 104 | 113 | 88.1 | 101 | 100 | 109
6 | CCN(CC)CCCC(C)Nc1c2ccc(Cl)cc2nc2ccc(OC)cc12 (configuration not stated) [Mepacrine] (5000 nM) | 97.2 | 57.4 | 101 | 71.8 | 103 | 106 | 102 |  | 98 | 105 | 111 | 84.3 | 99.3 | 81.8 | 99.8 | 107 | 89.3 | 97.6 | 104 | 93 | 110 | 88.7 | 113 | 101 | 97.3 | 98 | 101 | 101 | 112 | 104 | 108 | 98.1 | 103 | 102 | 94.4 | 92.5 | 102
7 | O=C(O)C(=O)O.[NH-][C@@H]1CCCC[C@H]1[NH-].[Pt+2] [Oxaliplatin] (1000 nM) | 95.9 | 121 | 102 |  | 108 | 102 | 98.1 | 101 | 93.9 | 97.7 | 102 | 63.9 | 107 | 98.2 | 95.7 | 106 | 157 | 85.6 | 97.7 | 105 | 96.9 | 82.5 | 128 | 95.9 | 94.4 | 95.5 | 100 | 99.5 | 106 | 104 | 96.5 | 97 | 106 | 89.2 | 91.1 | 92.3 | 92.8
8 | Nc1ccccc1NC(=O)c1ccc(CNC(=O)OCc2cccnc2)cc1 [Entinostat] (1000 nM) | 99.8 | 114 | 102 | 98.3 | 70.2 | 107 | 99.9 |  | 90.1 | 116 | 109 | 75 | 90.1 | 108 | 86.4 | 102 | 65.9 | 90.1 | 92.4 | 62.1 | 97 | 93.7 | 45.2 | 105 | 102 | 98.1 | 83.6 | 87.8 | 93.5 | 86.8 | 142 | 93.2 | 90.5 | 89.8 | 91.4 | 98.2 | 88.8
9 | CNC(=O)c1cc(Oc2ccc(NC(=O)Nc3cc(C(C)(C)C)nn3-c3ccc4ncccc4c3)c(F)c2)ccn1 [Rebastinib] (100 nM) | 98.6 | 95 | 101 | 84 | 105 | 103 | 103 | 113 | 99.2 | 112 | 94.4 | 98.8 |  | 90.2 | 97.3 | 101 | 118 | 95.3 | 97 | 111 | 92.2 | 105 | 120 | 101 | 101 | 110 | 110 | 108 | 114 | 114 | 119 | 90 | 110 | 101 | 113 | 65.3 | 104
